Test results as given in BindingDB's records for patent US20230348371 (Shanghai Senhui Medicine, 2023).

Target: ATP-binding cassette sub-family C member 8 (Homo sapiens, UniProt Q09428)
Test: Binding Activity of the Compounds of the Present Disclosure for SUR1 Receptor
Procedure: The plate was incubated at 4° C. for 1 h.f) The […]-96 GF/C and […]-96 GF/B plates were washed twice with Universal Harvester, each time with 50 mL of washing solution.g) The SUR1 receptor reaction system was transferred to a […]-96 GF/B plate with Universal Harvester, and 900 μL of washing solution was added to each well to wash the GF/B plate 4 times. The washed […]-96 GF/B plate was dried in an oven at 55° C. for 10 min.h) 40 μL of ULTIMA GOLD scintillation solution was added to each well, and the plate was read using Microbeta.

Chain of ATP-binding cassette sub-family C member 8 (Q09428 whole entry): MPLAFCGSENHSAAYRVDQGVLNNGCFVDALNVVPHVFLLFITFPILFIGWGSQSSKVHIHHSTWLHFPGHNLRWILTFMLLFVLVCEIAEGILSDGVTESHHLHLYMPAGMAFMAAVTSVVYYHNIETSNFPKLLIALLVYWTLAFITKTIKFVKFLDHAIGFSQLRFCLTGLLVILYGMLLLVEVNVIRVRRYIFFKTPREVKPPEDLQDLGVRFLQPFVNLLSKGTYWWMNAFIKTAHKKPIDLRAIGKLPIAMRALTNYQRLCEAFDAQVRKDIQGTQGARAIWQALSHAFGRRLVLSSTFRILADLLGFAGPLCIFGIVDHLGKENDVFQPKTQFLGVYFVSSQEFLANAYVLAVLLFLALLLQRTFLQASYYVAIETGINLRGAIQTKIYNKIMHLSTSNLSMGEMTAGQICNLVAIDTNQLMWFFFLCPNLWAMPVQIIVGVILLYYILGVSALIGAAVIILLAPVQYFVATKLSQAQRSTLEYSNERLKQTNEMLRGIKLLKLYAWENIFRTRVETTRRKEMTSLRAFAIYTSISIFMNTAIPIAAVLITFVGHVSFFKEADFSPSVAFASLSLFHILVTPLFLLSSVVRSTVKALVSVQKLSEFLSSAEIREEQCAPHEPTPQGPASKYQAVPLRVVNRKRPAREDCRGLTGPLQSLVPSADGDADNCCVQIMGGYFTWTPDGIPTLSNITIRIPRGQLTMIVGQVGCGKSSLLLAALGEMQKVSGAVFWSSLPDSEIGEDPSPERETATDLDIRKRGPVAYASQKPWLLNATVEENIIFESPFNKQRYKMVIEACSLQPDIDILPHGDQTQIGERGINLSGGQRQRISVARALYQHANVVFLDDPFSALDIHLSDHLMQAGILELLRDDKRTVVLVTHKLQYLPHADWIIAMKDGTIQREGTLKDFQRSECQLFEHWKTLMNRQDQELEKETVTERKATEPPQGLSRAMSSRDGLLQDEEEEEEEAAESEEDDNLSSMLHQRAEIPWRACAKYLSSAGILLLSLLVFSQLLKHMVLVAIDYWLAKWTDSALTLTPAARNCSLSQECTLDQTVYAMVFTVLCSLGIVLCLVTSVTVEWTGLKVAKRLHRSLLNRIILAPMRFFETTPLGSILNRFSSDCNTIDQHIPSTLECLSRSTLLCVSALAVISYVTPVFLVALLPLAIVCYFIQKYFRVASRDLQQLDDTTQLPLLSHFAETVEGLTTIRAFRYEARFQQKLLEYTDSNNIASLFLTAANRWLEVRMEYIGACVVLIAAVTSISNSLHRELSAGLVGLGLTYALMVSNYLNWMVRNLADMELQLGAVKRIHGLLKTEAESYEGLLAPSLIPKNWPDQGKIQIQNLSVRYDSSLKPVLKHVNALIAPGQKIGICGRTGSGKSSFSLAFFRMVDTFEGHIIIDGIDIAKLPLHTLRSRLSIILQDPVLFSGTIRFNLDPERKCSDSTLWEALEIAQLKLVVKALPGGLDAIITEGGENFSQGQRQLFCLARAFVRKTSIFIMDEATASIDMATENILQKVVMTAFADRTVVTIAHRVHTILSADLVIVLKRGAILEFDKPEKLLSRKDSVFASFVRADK

IC50: 8 nM
SMILES: COc1ccc(Cl)cc1C(=O)NCCc1ccc(S(=O)(=O)NC(=O)N[C@H]2CC[C@H](O)CC2)cc1 [US20230348371, Compound 4]
